From patent publication US10517889B2, “Modulators of SMAD7 expression” (Ionis Pharmaceuticals, Inc., priority 2017, dated 2019)
Strand notation (5' to 3'): a small letter for the sugar, then the base; units joined by * are phosphorothioate-linked, units joined directly phosphodiester-linked; [ ] holds rarer units or linkages, { } end groups; capitals alone tell only the bases. k = constrained ethyl (cEt); [5mC] = 5-methylcytosine; d = 2'-deoxy (DNA)

The substances below were run on human SMAD7 mRNA (assay: Antisense inhibition of human SMAD7 mRNA expression in Hep3B cells by 3-10-3 cEt gapmers, 10,000 nM, electroporation (Example 2)). Conditions: Hep3B cells, electroporation with 10,000 nM antisense oligonucleotide, approximately 24 hours, SMAD7 mRNA by RT-PCR (RTS5062), relative to untreated control cells.
Assay type: cell-based
How it was run: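 SMAD7 mRNA was measured by real-time PCR (RTS5062) with RiboGreen total-RNA normalization, about 24 h after 10,000 nM gapmer was delivered by electroporation into Hep3B cells at 20,000 per well. Gapmers were 16-mer 3-10-3 cEt, fully phosphorothioate; values are % inhibition versus untreated controls.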

Substance	% Inhibition [%]
798715 (antisense kG*k[5mC]*k[5mC]*d[5mC]*dG*dG*dG*d[5mC]*d[5mC]*dG*d[5mC]*d[5mC]*dG*k[5mC]*k[5mC]*kA) [compound 798715]	0
798716 (antisense k[5mC]*k[5mC]*kT*dG*d[5mC]*d[5mC]*d[5mC]*dG*dG*dG*d[5mC]*d[5mC]*dG*k[5mC]*k[5mC]*kG) [compound 798716]	0
798717 (antisense kA*kG*k[5mC]*d[5mC]*d[5mC]*dT*dG*d[5mC]*d[5mC]*d[5mC]*dG*dG*dG*k[5mC]*k[5mC]*kG) [compound 798717]	18
798718 (antisense kA*kT*k[5mC]*d[5mC]*dA*dG*d[5mC]*d[5mC]*d[5mC]*dT*dG*d[5mC]*d[5mC]*k[5mC]*kG*kG) [compound 798718]	37
798719 (antisense kA*kG*k[5mC]*dA*dT*d[5mC]*d[5mC]*dA*dG*d[5mC]*d[5mC]*d[5mC]*dT*kG*k[5mC]*k[5mC]) [compound 798719]	34
798720 (antisense kG*kG*k[5mC]*dA*dG*d[5mC]*dA*dT*d[5mC]*d[5mC]*dA*dG*d[5mC]*k[5mC]*k[5mC]*kT) [compound 798720]	25
798721 (antisense kG*k[5mC]*k[5mC]*d[5mC]*dA*dG*dG*d[5mC]*dA*dG*d[5mC]*dA*dT*k[5mC]*k[5mC]*kA) [compound 798721]	41
798722 (antisense k[5mC]*kT*kT*dG*d[5mC]*d[5mC]*d[5mC]*dA*dG*dG*d[5mC]*dA*dG*k[5mC]*kA*kT) [compound 798722]	0
798734 (antisense kG*k[5mC]*k[5mC]*d[5mC]*dG*d[5mC]*dG*dG*d[5mC]*dT*dG*dG*d[5mC]*kG*kG*kG) [compound 798734]	0
798735 (antisense k[5mC]*k[5mC]*k[5mC]*d[5mC]*d[5mC]*dG*dG*d[5mC]*d[5mC]*dG*d[5mC]*dG*d[5mC]*k[5mC]*kG*kG) [compound 798735]	0
798736 (antisense kG*k[5mC]*kG*d[5mC]*d[5mC]*d[5mC]*d[5mC]*d[5mC]*dG*dG*d[5mC]*d[5mC]*dG*k[5mC]*kG*k[5mC]) [compound 798736]	0
798737 (antisense k[5mC]*kA*kG*dA*dT*d[5mC]*d[5mC]*dG*d[5mC]*d[5mC]*dT*d[5mC]*dG*kG*k[5mC]*kG) [compound 798737]	2
798738 (antisense k[5mC]*kT*kT*d[5mC]*dA*dG*dA*dT*d[5mC]*d[5mC]*dG*d[5mC]*d[5mC]*kT*k[5mC]*kG) [compound 798738]	25
798739 (antisense k[5mC]*kG*k[5mC]*d[5mC]*dT*dT*d[5mC]*dA*dG*dA*dT*d[5mC]*d[5mC]*kG*k[5mC]*k[5mC]) [compound 798739]	37
798740 (antisense kT*kT*kG*dA*dG*d[5mC]*dA*d[5mC]*d[5mC]*dG*dA*dG*dT*kG*k[5mC]*kG) [compound 798740]	56
798741 (antisense k[5mC]*kT*kT*d[5mC]*dA*dG*dT*dT*dT*d[5mC]*dT*dT*dG*kA*kG*k[5mC]) [compound 798741]	17
798751 (k[5mC]*k[5mC]*kG*dG*dG*d[5mC]*dA*dG*d[5mC]*dA*dG*dG*dA*kG*kG*k[5mC]; antisense) [compound 798751]	0
798752 (k[5mC]*kG*kG*d[5mC]*d[5mC]*dG*dG*dG*d[5mC]*dA*dG*d[5mC]*dA*kG*kG*kA; antisense) [compound 798752]	0
798753 (kT*kG*k[5mC]*dA*dG*dT*d[5mC]*d[5mC]*dA*dG*dG*d[5mC]*dG*kG*k[5mC]*k[5mC]; antisense) [compound 798753]	0
798754 (kA*kG*k[5mC]*d[5mC]*dT*dG*d[5mC]*dA*dG*dT*d[5mC]*d[5mC]*dA*kG*kG*k[5mC]; antisense) [compound 798754]	16
798755 (kG*k[5mC]*k[5mC]*d[5mC]*dA*dG*d[5mC]*d[5mC]*dT*dG*d[5mC]*dA*dG*kT*k[5mC]*k[5mC]; antisense) [compound 798755]	46
798756 (k[5mC]*kG*k[5mC]*d[5mC]*d[5mC]*d[5mC]*d[5mC]*dG*dG*dG*d[5mC]*d[5mC]*d[5mC]*kA*kG*k[5mC]; antisense) [compound 798756]	16
798757 (kG*k[5mC]*kG*d[5mC]*dA*dG*dG*d[5mC]*dT*dG*d[5mC]*dG*d[5mC]*kG*k[5mC]*k[5mC]; antisense) [compound 798757]	0

Same assay, conditions: Hep3B cells, electroporation with 10,000 nM antisense oligonucleotide, approximately 24 hours, primer probe set RTS5062, relative to untreated control cells

Substance	% inhibition of SMAD7 mRNA expression [%]
798723 (antisense k[5mC]*kG*k[5mC]*d[5mC]*dT*dT*dG*d[5mC]*d[5mC]*d[5mC]*dA*dG*dG*k[5mC]*kA*kG) [compound 798723]	0
798724 (antisense k[5mC]*kA*k[5mC]*d[5mC]*dG*d[5mC]*d[5mC]*dT*dT*dG*d[5mC]*d[5mC]*d[5mC]*kA*kG*kG) [compound 798724]	19
798725 (antisense kT*k[5mC]*kG*d[5mC]*dA*d[5mC]*d[5mC]*dG*d[5mC]*d[5mC]*dT*dT*dG*k[5mC]*k[5mC]*k[5mC]) [compound 798725]	29
798726 (antisense k[5mC]*kA*k[5mC]*d[5mC]*dT*d[5mC]*dG*d[5mC]*dA*d[5mC]*d[5mC]*dG*d[5mC]*k[5mC]*kT*kT) [compound 798726]	7
798727 (antisense kT*kG*kG*d[5mC]*dA*d[5mC]*d[5mC]*dT*d[5mC]*dG*d[5mC]*dA*d[5mC]*k[5mC]*kG*k[5mC]) [compound 798727]	51
798728 (antisense k[5mC]*kT*kT*dT*dG*dG*d[5mC]*dA*d[5mC]*d[5mC]*dT*d[5mC]*dG*k[5mC]*kA*k[5mC]) [compound 798728]	41
798729 (antisense kG*kA*k[5mC]*d[5mC]*dT*dT*dT*dG*dG*d[5mC]*dA*d[5mC]*d[5mC]*kT*k[5mC]*kG) [compound 798729]	51
798730 (antisense kG*kG*kT*dG*dA*d[5mC]*d[5mC]*dT*dT*dT*dG*dG*d[5mC]*kA*k[5mC]*k[5mC]) [compound 798730]	0
798731 (antisense kG*kG*kT*dG*dG*dT*dG*dA*d[5mC]*d[5mC]*dT*dT*dT*kG*kG*k[5mC]) [compound 798731]	43
798732 (antisense kG*kG*kA*dT*dG*dG*dT*dG*dG*dT*dG*dA*d[5mC]*k[5mC]*kT*kT) [compound 798732]	51
798742 (antisense k[5mC]*kT*k[5mC]*d[5mC]*dT*dT*d[5mC]*dA*dG*dT*dT*dT*d[5mC]*kT*kT*kG) [compound 798742]	30
798743 (antisense kT*kG*k[5mC]*d[5mC]*dG*d[5mC]*dT*d[5mC]*d[5mC]*dT*dT*d[5mC]*dA*kG*kT*kT) [compound 798743]	19
798744 (antisense kA*kG*k[5mC]*dT*dG*d[5mC]*d[5mC]*dG*d[5mC]*dT*d[5mC]*d[5mC]*dT*kT*k[5mC]*kA) [compound 798744]	12
798745 (antisense kG*k[5mC]*kA*dG*d[5mC]*dT*d[5mC]*d[5mC]*dA*dG*d[5mC]*dT*dG*k[5mC]*k[5mC]*kG) [compound 798745]	0
798746 (antisense kT*kG*kG*dA*dG*d[5mC]*dA*dG*d[5mC]*dA*dG*d[5mC]*dT*k[5mC]*k[5mC]*kA) [compound 798746]	30
798747 (antisense k[5mC]*kG*kG*d[5mC]*d[5mC]*dT*dG*dG*dA*dG*d[5mC]*dA*dG*k[5mC]*kA*kG) [compound 798747]	14
798748 (antisense k[5mC]*kT*k[5mC]*d[5mC]*dA*d[5mC]*dG*dG*d[5mC]*d[5mC]*dT*dG*dG*kA*kG*k[5mC]) [compound 798748]	58
798749 (antisense kG*kG*kA*d[5mC]*dT*d[5mC]*d[5mC]*dA*d[5mC]*dG*dG*d[5mC]*d[5mC]*kT*kG*kG) [compound 798749]	63
798750 (antisense kA*kG*kG*dA*dG*dG*d[5mC]*dA*d[5mC]*dG*d[5mC]*dG*dG*kT*kG*k[5mC]) [compound 798750]	54
798758 (kG*k[5mC]*kT*dG*d[5mC]*dG*d[5mC]*dA*dG*dG*d[5mC]*dT*dG*k[5mC]*kG*k[5mC]; antisense) [compound 798758]	0
798759 (kG*kG*k[5mC]*dG*dG*d[5mC]*dT*dG*d[5mC]*dG*d[5mC]*dA*dG*kG*k[5mC]*kT; antisense) [compound 798759]	40
798760 (kG*kA*kG*dG*dG*d[5mC]*dG*dG*d[5mC]*dT*dG*d[5mC]*dG*k[5mC]*kA*kG; antisense) [compound 798760]	47
798761 (kG*kA*k[5mC]*dG*dA*dG*dG*dG*d[5mC]*dG*dG*d[5mC]*dT*kG*k[5mC]*kG; antisense) [compound 798761]	39
798762 (kT*kA*kG*dG*dA*d[5mC]*dG*dA*dG*dG*dG*d[5mC]*dG*kG*k[5mC]*kT; antisense) [compound 798762]	56
798763 (kG*kA*kG*dT*dA*dG*dG*dA*d[5mC]*dG*dA*dG*dG*kG*k[5mC]*kG; antisense) [compound 798763]	53
798765 (kA*kA*k[5mC]*dA*d[5mC]*dT*dT*dT*dG*d[5mC]*dA*d[5mC]*dA*kG*k[5mC]*kA; antisense) [compound 798765]	63
